Laboratory results published in the kinase profiling compilation of Christmann-Franck et al. (2016).

Columns and labels:
Assay in all cases: KINOMEscan competition binding
Conditions in all cases: compound 10.0 µM
SRPK1 (human) = SRPK1 (human) (UniProt Q96SB4)
INSR (human) = INSR (human) (UniProt P06213)
CDK7 (human) = CDK7 (human) (UniProt P50613)
AKT1 (human) = AKT1 (human) (UniProt P31749)
CSNK1G3 (human) = CSNK1G3 (human) (UniProt Q9Y6M4)
NUAK2 (human) = NUAK2 (human) (UniProt Q9H093)
FRK (human) = FRK (human) (UniProt P42685)
CAMK1D (human) = CAMK1D (human) (UniProt Q8IU85)
EPHA1 (human) = EPHA1 (human) (UniProt P21709)
ACVR1B (human) = ACVR1B (human) (UniProt P36896)
PRKACA (human) = PRKACA (human) (UniProt P17612)
STK35 (human) = STK35 (human) (UniProt Q8TDR2)
MAP2K3 (human) = MAP2K3 (human) (UniProt P46734)
FGFR2 (human) = FGFR2 (human) (UniProt P21802)
ROS1 (human) = ROS1 (human) (UniProt P08922)
MAP4K5 (human) = MAP4K5 (human) (UniProt Q9Y4K4)
MST4 (human) = MST4 (human) (UniProt Q9P289)
MARK4 (human) = MARK4 (human) (UniProt Q96L34)
[1] = target: TYK2 JH1 catalytic (human) (UniProt P29597)
EPHB3 (human) = EPHB3 (human) (UniProt P54753)
CDK18 (human) = CDK18 (human) (UniProt Q07002)
MAPK3 (human) = MAPK3 (human) (UniProt P27361)
PAK6 (human) = PAK6 (human) (UniProt Q9NQU5)
CSNK1G2 (human) = CSNK1G2 (human) (UniProt P78368)
AURKA (human) = AURKA (human) (UniProt O14965)
PRKD3 (human) = PRKD3 (human) (UniProt O94806)
STK36 (human) = STK36 (human) (UniProt Q9NRP7)
PAK7 (human) = PAK7 (human) (UniProt Q9P286)
MAP2K2 (human) = MAP2K2 (human) (UniProt P36507)
RPS6KA5 KD1 (human) = RPS6KA5 KD1 (human) (UniProt O75582)
WEE1 (human) = WEE1 (human) (UniProt P30291)
MST1R (human) = MST1R (human) (UniProt Q04912)
DMPK (human) = DMPK (human) (UniProt Q09013)
CDK11B (human) = CDK11B (human) (UniProt P21127)
NLK (human) = NLK (human) (UniProt Q9UBE8)
PRKAA2 (human) = PRKAA2 (human) (UniProt P54646)
MAP3K3 (human) = MAP3K3 (human) (UniProt Q99759)
RIOK3 (human) = RIOK3 (human) (UniProt O14730)
SRPK3 (human) = SRPK3 (human) (UniProt Q9UPE1)
[2] = system: KIT (human), P10721 [D816V]

FRK (human), sequence (P42685 whole entry, looked up): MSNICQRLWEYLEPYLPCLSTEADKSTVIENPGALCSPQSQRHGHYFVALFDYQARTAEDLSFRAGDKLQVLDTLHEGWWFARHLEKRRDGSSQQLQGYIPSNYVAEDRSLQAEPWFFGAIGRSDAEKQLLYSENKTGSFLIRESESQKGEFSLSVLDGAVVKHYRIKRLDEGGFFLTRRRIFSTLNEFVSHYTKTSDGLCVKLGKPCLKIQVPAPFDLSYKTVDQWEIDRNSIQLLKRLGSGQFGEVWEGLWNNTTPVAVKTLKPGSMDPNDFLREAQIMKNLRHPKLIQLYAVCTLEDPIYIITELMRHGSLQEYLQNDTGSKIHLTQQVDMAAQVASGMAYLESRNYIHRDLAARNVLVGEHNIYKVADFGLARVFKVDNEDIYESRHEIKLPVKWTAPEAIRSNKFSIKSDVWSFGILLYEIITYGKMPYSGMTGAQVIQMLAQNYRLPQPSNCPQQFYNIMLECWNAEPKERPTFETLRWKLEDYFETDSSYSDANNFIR
MAP2K3 (human), sequence (P46734 whole entry, looked up): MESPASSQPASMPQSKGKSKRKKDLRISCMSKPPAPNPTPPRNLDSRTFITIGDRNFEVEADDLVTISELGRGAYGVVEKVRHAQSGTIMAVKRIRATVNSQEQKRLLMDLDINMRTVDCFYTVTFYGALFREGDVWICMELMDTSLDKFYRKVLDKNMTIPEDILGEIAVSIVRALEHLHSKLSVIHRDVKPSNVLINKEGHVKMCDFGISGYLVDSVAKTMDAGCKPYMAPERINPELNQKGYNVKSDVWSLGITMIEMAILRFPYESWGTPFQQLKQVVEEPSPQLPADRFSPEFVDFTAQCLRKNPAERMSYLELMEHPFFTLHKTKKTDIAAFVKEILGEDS
NLK (human), sequence (Q9UBE8 whole entry, looked up): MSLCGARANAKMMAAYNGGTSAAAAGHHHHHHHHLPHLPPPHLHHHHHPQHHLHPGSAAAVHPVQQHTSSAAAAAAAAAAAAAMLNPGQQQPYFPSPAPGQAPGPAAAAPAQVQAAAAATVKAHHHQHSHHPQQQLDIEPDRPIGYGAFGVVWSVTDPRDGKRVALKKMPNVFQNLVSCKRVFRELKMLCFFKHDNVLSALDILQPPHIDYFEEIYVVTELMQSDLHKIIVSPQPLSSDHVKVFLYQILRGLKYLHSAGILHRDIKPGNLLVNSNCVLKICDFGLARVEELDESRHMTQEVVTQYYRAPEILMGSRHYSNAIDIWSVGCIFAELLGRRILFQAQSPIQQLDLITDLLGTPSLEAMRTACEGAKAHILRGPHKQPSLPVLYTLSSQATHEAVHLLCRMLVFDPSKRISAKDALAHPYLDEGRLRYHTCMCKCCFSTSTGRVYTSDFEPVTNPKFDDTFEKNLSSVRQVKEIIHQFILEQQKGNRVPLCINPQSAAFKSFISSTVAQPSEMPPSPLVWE
CAMK1D (human), sequence (Q8IU85 whole entry, looked up): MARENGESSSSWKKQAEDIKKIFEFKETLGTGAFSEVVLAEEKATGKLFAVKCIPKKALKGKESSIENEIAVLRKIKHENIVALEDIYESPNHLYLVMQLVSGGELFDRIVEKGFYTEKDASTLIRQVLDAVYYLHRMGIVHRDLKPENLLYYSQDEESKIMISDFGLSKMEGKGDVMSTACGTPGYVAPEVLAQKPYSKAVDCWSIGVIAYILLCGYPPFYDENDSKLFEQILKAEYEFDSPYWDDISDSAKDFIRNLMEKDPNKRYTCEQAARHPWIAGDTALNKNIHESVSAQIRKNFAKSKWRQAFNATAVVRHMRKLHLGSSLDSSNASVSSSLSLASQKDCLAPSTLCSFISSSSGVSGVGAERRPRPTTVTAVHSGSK
NUAK2 (human), sequence (Q9H093 whole entry, looked up): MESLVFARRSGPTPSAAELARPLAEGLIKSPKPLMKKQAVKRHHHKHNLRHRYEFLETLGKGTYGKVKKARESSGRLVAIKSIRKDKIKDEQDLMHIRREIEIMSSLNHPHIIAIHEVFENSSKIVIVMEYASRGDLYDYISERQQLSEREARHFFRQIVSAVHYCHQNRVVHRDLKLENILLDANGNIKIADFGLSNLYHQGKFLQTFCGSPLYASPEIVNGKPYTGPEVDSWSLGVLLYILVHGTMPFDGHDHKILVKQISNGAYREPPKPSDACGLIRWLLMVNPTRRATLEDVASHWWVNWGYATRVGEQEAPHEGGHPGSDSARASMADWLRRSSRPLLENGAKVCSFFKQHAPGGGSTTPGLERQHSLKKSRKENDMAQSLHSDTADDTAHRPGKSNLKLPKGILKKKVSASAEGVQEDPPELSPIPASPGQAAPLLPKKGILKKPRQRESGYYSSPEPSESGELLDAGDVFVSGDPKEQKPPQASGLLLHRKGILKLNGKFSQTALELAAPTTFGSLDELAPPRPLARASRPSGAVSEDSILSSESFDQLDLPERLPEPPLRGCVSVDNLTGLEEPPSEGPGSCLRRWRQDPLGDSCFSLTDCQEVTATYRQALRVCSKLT
ROS1 (human), sequence (P08922 whole entry, looked up): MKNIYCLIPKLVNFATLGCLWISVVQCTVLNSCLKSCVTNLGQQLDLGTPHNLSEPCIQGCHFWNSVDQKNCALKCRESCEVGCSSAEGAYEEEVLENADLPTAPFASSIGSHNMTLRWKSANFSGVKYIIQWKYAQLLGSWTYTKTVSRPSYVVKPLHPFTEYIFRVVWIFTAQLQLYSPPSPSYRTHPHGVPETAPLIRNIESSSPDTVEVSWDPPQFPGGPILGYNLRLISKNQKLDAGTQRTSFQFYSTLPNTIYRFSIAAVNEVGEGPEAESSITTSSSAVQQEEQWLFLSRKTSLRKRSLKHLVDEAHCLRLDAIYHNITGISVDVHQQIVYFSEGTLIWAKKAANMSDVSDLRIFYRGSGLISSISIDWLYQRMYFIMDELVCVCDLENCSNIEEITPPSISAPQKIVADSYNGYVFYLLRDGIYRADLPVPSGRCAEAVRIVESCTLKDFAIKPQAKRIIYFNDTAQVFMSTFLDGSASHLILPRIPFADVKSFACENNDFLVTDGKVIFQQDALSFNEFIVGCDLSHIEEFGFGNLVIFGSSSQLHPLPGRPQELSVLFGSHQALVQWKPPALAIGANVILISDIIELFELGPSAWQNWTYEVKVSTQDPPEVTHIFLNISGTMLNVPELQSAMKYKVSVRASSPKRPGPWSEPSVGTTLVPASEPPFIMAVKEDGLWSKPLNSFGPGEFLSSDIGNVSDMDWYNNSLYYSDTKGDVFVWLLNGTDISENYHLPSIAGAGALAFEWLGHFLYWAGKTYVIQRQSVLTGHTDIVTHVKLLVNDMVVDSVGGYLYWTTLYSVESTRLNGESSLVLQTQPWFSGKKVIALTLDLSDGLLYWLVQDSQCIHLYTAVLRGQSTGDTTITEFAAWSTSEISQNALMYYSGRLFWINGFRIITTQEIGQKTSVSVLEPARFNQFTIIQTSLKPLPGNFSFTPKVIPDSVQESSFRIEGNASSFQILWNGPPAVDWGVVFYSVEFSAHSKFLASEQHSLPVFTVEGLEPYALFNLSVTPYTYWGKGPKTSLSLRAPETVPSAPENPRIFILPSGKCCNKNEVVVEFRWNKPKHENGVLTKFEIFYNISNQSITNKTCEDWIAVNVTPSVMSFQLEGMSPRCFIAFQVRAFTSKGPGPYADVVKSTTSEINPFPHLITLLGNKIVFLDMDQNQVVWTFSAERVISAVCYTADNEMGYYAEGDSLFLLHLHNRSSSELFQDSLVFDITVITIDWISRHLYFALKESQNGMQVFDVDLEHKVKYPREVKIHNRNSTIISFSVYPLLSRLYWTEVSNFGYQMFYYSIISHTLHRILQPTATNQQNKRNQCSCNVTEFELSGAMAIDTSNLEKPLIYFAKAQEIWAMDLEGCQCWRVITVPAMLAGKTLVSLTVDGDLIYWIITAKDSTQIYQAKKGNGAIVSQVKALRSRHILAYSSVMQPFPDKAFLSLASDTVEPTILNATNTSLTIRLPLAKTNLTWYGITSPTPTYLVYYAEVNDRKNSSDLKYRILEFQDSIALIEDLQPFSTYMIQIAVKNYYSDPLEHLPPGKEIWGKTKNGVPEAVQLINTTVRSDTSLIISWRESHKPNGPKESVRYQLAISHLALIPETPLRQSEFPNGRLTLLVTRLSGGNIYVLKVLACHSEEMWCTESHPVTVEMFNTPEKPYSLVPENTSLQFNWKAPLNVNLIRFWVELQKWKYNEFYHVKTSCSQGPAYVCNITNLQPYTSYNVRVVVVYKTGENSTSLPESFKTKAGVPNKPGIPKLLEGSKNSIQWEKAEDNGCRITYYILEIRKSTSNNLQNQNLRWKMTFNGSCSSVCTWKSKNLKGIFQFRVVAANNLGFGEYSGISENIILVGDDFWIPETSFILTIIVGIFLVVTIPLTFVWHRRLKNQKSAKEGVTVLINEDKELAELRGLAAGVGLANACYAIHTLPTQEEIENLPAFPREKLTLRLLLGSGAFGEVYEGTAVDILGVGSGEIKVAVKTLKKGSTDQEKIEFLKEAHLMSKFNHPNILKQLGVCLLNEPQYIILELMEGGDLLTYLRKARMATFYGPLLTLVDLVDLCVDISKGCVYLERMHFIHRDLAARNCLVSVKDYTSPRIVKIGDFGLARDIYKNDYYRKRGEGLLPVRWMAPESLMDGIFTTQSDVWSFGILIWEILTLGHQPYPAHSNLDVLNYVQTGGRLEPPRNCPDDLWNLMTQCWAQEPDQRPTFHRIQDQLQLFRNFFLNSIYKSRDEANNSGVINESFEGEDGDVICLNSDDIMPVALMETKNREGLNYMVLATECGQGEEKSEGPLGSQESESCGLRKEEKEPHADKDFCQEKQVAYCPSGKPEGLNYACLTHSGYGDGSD

| SMILES | kinase still bound, per cent of control (SRPK1 (human)) [%] | kinase still bound, per cent of control (CDK7 (human)) [%] | kinase still bound, per cent of control (AKT1 (human)) [%] | kinase still bound, per cent of control (NUAK2 (human)) [%] | kinase still bound, per cent of control (FRK (human)) [%] | kinase still bound, per cent of control (EPHA1 (human)) [%] | kinase still bound, per cent of control (ACVR1B (human)) [%] | kinase still bound, per cent of control (PRKACA (human)) [%] | kinase still bound, per cent of control (STK35 (human)) [%] | kinase still bound, per cent of control (FGFR2 (human)) [%] | kinase still bound, per cent of control (ROS1 (human)) [%] | kinase still bound, per cent of control (MST4 (human)) [%] | kinase still bound, per cent of control (MARK4 (human)) [%] | kinase still bound, per cent of control [1] [%] | kinase still bound, per cent of control (EPHB3 (human)) [%] | kinase still bound, per cent of control (CDK18 (human)) [%] | kinase still bound, per cent of control (MAPK3 (human)) [%] | kinase still bound, per cent of control (PAK6 (human)) [%] | kinase still bound, per cent of control (AURKA (human)) [%] | kinase still bound, per cent of control (PRKD3 (human)) [%] | also measured |
| --- | --- | --- | --- | --- | --- | --- | --- | --- | --- | --- | --- | --- | --- | --- | --- | --- | --- | --- | --- | --- | --- |
| CCC(=O)N1CCN(c2ccc(-n3c(=O)ccc4cnc5ccc(-c6cnc7ccccc7c6)cc5c43)cc2C(F)(F)F)CC1 | 100 | 57 | 91 | 100 | 60 | 62 | 45 | 79 | 18 | 55 | 71 | 89 | 100 | 70 | 85 | 97 | 91 | 77 | 100 | 100 | kinase still bound, per cent of control (INSR (human)): 7.6%; kinase still bound, per cent of control (CSNK1G3 (human)): 100%; kinase still bound, per cent of control (CAMK1D (human)): 88%; kinase still bound, per cent of control (MAP2K3 (human)): 80%; kinase still bound, per cent of control (MAP4K5 (human)): 8.1%; kinase still bound, per cent of control (CSNK1G2 (human)): 100%; kinase still bound, per cent of control (STK36 (human)): 17%; kinase still bound, per cent of control (PAK7 (human)): 87%; kinase still bound, per cent of control (MAP2K2 (human)): 100%; kinase still bound, per cent of control (RPS6KA5 KD1 (human)): 100%; kinase still bound, per cent of control (WEE1 (human)): 42%; kinase still bound, per cent of control (MST1R (human)): 55%; kinase still bound, per cent of control (DMPK (human)): 77%; kinase still bound, per cent of control (CDK11B (human)): 97%; kinase still bound, per cent of control (NLK (human)): 25%; kinase still bound, per cent of control (PRKAA2 (human)): 74%; kinase still bound, per cent of control (MAP3K3 (human)): 75%; kinase still bound, per cent of control (RIOK3 (human)): 90% |
| Cc1ccc2nc(NCCN)c3ncc(C)n3c2c1 | 100 | 6.3 | 100 | 100 | 100 | 79 | 97 | 100 | 90 | 100 | 77 | 95 | 100 | 100 | 100 | 100 | 97 | 100 | 100 | 41 | kinase still bound, per cent of control (INSR (human)): 99%; kinase still bound, per cent of control (CSNK1G3 (human)): 100%; kinase still bound, per cent of control (CAMK1D (human)): 69%; kinase still bound, per cent of control (MAP2K3 (human)): 95%; kinase still bound, per cent of control (MAP4K5 (human)): 96%; kinase still bound, per cent of control (CSNK1G2 (human)): 97%; kinase still bound, per cent of control (PAK7 (human)): 100%; kinase still bound, per cent of control (MAP2K2 (human)): 77%; kinase still bound, per cent of control (RPS6KA5 KD1 (human)): 100%; kinase still bound, per cent of control (WEE1 (human)): 100%; kinase still bound, per cent of control (MST1R (human)): 100%; kinase still bound, per cent of control (DMPK (human)): 100%; kinase still bound, per cent of control (SRPK3 (human)): 100%; kinase still bound, per cent of control (CDK11B (human)): 0.95%; kinase still bound, per cent of control (NLK (human)): 100%; kinase still bound, per cent of control (PRKAA2 (human)): 100%; kinase still bound, per cent of control [2]: 88%; kinase still bound, per cent of control (MAP3K3 (human)): 100%; kinase still bound, per cent of control (RIOK3 (human)): 100% |
| CC[C@@H]1C(=O)N(C)c2cnc(Nc3ccc(C(=O)NC4CCN(C)CC4)cc3OC)nc2N1C1CCCC1 | 100 | 100 | 100 | 100 | 100 | 100 | 100 | 100 | 100 | 100 | 28 | 100 | 100 | 100 | 100 | 100 | 100 | 100 | 100 | 10 | kinase still bound, per cent of control (MAP2K3 (human)): 100%; kinase still bound, per cent of control (STK36 (human)): 100%; kinase still bound, per cent of control (PAK7 (human)): 100%; kinase still bound, per cent of control (MAP2K2 (human)): 100%; kinase still bound, per cent of control (RPS6KA5 KD1 (human)): 100%; kinase still bound, per cent of control (WEE1 (human)): 100%; kinase still bound, per cent of control (MST1R (human)): 100%; kinase still bound, per cent of control (DMPK (human)): 100%; kinase still bound, per cent of control (SRPK3 (human)): 100%; kinase still bound, per cent of control (CDK11B (human)): 100%; kinase still bound, per cent of control (NLK (human)): 100%; kinase still bound, per cent of control (PRKAA2 (human)): 100%; kinase still bound, per cent of control [2]: 100%; kinase still bound, per cent of control (MAP3K3 (human)): 100%; kinase still bound, per cent of control (RIOK3 (human)): 100% |
| CCCS(=O)(=O)Nc1ccc(F)c(C(=O)c2c[nH]c3ncc(-c4ccc(Cl)cc4)cc23)c1F | 92 | 82 | 100 | 98 | 16 | 82 | 78 | 100 | 100 | 64 | 100 | 100 | 100 | 47 | 100 | 100 | 100 | 74 | 81 | 44 | kinase still bound, per cent of control (INSR (human)): 78%; kinase still bound, per cent of control (CSNK1G3 (human)): 100%; kinase still bound, per cent of control (CAMK1D (human)): 100%; kinase still bound, per cent of control (MAP4K5 (human)): 6.4%; kinase still bound, per cent of control (CSNK1G2 (human)): 88%; kinase still bound, per cent of control (STK36 (human)): 4.6%; kinase still bound, per cent of control (PAK7 (human)): 78%; kinase still bound, per cent of control (MAP2K2 (human)): 5.4%; kinase still bound, per cent of control (RPS6KA5 KD1 (human)): 98%; kinase still bound, per cent of control (WEE1 (human)): 100%; kinase still bound, per cent of control (MST1R (human)): 100%; kinase still bound, per cent of control (DMPK (human)): 67%; kinase still bound, per cent of control (SRPK3 (human)): 100%; kinase still bound, per cent of control (CDK11B (human)): 100%; kinase still bound, per cent of control (NLK (human)): 81%; kinase still bound, per cent of control (PRKAA2 (human)): 63%; kinase still bound, per cent of control [2]: 52%; kinase still bound, per cent of control (MAP3K3 (human)): 82%; kinase still bound, per cent of control (RIOK3 (human)): 100% |
